# Patent publication US20230233567A1, “BELVARAFENIB FOR USE IN CANCER TREATMENT” (Hanmi Pharm. Co., Ltd., priority 2020, published 2023)
# pKi: −log10 of the molar value.
# Tests used:
# Assay in all cases: RAF inhibition Ki
# Format in all cases: biochemical
# BRAF = BRAF (Homo sapiens, UniProt P15056)
# Method: (§1) Belvarafenib was evaluated to measure the inhibition capability of RAF monomers and dimers. In Table 12: “A375” refers to the A375 a human melanoma cell line bearing a BRAF^V600E mutation; “IPC298” refers to the IPC298 cutaneous melanoma cell line bearing an NRAS^Q61L mutation; “A549” refers to the A549 lung adenocarcinoma cell line baring a KRAS mutation; “CSFR1” refers to the CSFR1 gene; “DDR1” refers to discoidin domain receptors DDR1; and “DDR2” refers to discoidin domain receptors DDR2. In Table 13: “% P/T−MEK” refers to the ratio of P-MEK and total MEK; “Conc 1” refers to an inhibitor first (lowest) concentration; “Conc 2” refers to an inhibitor second (intermediate) concentration; and “Conc 3” refers to an inhibitor third (highest) concentration. In Table 13, LXH254 refers to a drug having CAS No.: 1800398-38-2 and the following structure: […]
# BRAF^V600E = BRAF^V600E (Homo sapiens, UniProt P15056, V600E)
# Method: as §1
# CRAF = CRAF (Homo sapiens, UniProt P04049, Y340D/Y341D)
# Method: as §1
# Chain of BRAF^V600E (P15056 whole entry V600E): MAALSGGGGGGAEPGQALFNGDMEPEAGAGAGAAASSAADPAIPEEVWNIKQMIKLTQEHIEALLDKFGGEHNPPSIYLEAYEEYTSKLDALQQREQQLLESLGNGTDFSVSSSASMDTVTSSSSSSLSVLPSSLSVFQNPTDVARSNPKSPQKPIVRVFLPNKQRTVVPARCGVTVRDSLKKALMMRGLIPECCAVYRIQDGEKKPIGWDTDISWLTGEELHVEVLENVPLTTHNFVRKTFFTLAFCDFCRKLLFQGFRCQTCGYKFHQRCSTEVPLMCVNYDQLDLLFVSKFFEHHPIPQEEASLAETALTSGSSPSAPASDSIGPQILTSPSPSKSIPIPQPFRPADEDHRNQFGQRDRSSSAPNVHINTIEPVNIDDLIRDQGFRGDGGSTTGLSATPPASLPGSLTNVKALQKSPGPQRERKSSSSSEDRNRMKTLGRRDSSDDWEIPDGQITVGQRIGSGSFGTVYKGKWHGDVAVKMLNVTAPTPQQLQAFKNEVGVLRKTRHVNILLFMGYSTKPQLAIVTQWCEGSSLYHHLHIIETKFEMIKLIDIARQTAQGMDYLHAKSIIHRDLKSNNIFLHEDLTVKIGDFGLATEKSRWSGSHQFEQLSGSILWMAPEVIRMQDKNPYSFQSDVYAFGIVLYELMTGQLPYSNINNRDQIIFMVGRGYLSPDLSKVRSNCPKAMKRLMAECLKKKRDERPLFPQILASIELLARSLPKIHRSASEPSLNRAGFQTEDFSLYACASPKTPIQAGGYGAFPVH
# Chain of CRAF (P04049 306-648 Y340D/Y341D): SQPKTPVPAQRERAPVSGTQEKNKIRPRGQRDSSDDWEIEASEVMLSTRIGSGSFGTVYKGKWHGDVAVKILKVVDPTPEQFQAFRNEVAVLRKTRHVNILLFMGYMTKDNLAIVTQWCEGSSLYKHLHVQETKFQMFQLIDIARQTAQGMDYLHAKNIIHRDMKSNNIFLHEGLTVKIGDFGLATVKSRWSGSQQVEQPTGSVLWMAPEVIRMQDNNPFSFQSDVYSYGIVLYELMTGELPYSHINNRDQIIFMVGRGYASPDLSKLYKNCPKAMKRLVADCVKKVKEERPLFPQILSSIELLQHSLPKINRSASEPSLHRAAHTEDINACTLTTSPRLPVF
# Chain of BRAF (P15056 whole entry, the tested form may be a part): as the sequence (P15056 whole entry V600E) above, with E600V counted along it
structure (smiles),measurement,setting,value
Cc1ccc2c(Nc3cccc(Cl)c3F)nccc2c1NC(=O)c1csc2c(N)ncnc12 [Belvarafenib],pKi,BRAF,7.39
same,pKi,BRAF^V600E,8.70
same,pKi,CRAF,8.70
